According to patent US6406718B1, “Orthorhombic crystalline form of fluticasone propionate and pharmaceutical compositions thereof” (SmithKline Beecham Corporation, priority 1996, dated 2002):

Assays:
Assay type in all cases: physicochemical
[1] = Particle size distribution by laser diffraction (Malvern Mastersizer)
Procedure: The data for four samples of fluticasone propionate of the present invention, produced using the method and apparatus described herein, are presented in Table 2 below. The particle size was determined by laser diffraction (Malvern Mastersizer).
The particle size was determined by laser diffraction (Malvern Mastersizer).

[2] = Water content of crystalline forms
Source text: The water content of the two crystalline forms of fluticasone propionate produced with the apparatus described herein has also been determined, and compared with that of conventionally crystallised and micronised fluticasone propionate.

[3] = Dynamic bulk density (fluidisability)
Procedure: The dynamic bulk density (W) is indicative of a substance's fluidisability and is defined as: [formula]
where P is the packed bulk density (g cm^−3), A is the aerated bulk density (g cm^−3) and C is the compressibility (%) where C is calculated by the equation: [formula]
Clearly, a low figure for W corresponds to a high degree of fluidisability.
The dynamic bulk density for conventionally crystallised fluticasone propionate (micronised and non-micronised) and fluticasone propionate of the present invention are shown in Table 7.

[4] = Static charge test (drug retained on vial walls after rolling); conditions: after rolling drug in the vial for 2 minutes
Procedure: A simple test was devised to ascertain a relative static charge based on the quantity of drug remaining coated to the walls of a vial after rolling a predetermined quantity of drug in the vial for 2 minutes. The greater the amount of the drug remaining on the vial, the higher the relative static charge associated with the drug substance.

[5] = Solvent content test by NMR
Procedure: The solvent content of fluticasone propionate of the present invention was investigated by Nuclear Magnetic Resonance (NMR) and compared to that of conventional crystallised fluticasone propionate. Each sample was tested for acetone content. (The conventionally crystallised fluticasone propionate was crystallised from acetone.) In addition, sample 5 was crystallised from methanol and therefore tested for methanol.

[6] = Stability of Form 2 to conversion to Form 1 by XRPD; conditions: after 62 weeks at ambient temperature and humidity
Procedure: X-ray powder diffraction (XRPD) patterns were generated using either a Siemens D 5000 or Philips X'pert MPD. The powders were scanned over a 2θ angle range of either 1.5° to 60°, or 0° to 35°, with a 0.02-0.050 step at 3-15 seconds count time using CuKα radiation. The Siemens D5000 measures intensity as counts per second and the Philips X'pert MPD measures intensity as counts.

[7] = Particle shape by scanning electron microscopy
Procedure: The particle shape was determined by scanning electron microscopy. Data for three samples of fluticasone propionate of the present invention, produced using the method and apparatus described herein, are presented in FIGS. 5 to 7.

[8] = drug material used in Inhaler Type A for cascade impaction
[9] = laser diffraction (Malvern Mastersizer)

| Substance | % <5 μm [1, 9] | % <10 μm [1, 9] | Mean particle size [1, 9] | Uniformity Index [1, 9] | further results |
| --- | --- | --- | --- | --- | --- |
| fluticasone propionate [Conventionally crystallised fluticasone propionate (micronis] [reference compound] | >90% | >95% | 1-3 μm | 15 | Mean particle size [1, 8]: 1.8 microns; Water content [2]: <0.1 % w/w; Dynamic Bulk Density (W) [3]: 0.21 g cm^−3; % Drug retained on vial [4]: 4.5%; Acetone Content [5]: typically 0.7 % w/w |
| fluticasone propionate [Conventionally crystallised fluticasone propionate (non-micr] [reference compound] |  |  |  |  | Dynamic Bulk Density (W) [3]: 0.21 g cm^−3 |
| fluticasone propionate [Form 1 fluticasone propionate prepared as described herein] |  |  |  |  | Water content [2]: <0.1 % w/w |
| fluticasone propionate [Form 2 fluticasone propionate prepared as described herein] |  |  |  |  | Conversion of Form 2 to Form 1 [6]: no conversion was seen; Water content [2]: >0.3 % w/w |
| fluticasone propionate [Sample 1] | 48% | 81% | 5.2 μm | 12 |  |
| fluticasone propionate [Sample 2] | 20% | 48% | 10.4 μm | 13 |  |
| fluticasone propionate [Sample 3] | 6% | 13% | 31.0 μm | 12 | Dynamic Bulk Density (W) [3]: 0.17 g cm^−3 |
| fluticasone propionate [Sample 4] | 68% | 83% | 2.8 μm | 4 |  |
| fluticasone propionate [Sample 5] |  |  |  |  | Particle shape [7]: acicular; Acetone Content [5]: Not Detected; Methanol Content [5]: Not Detected |
| fluticasone propionate [Sample 6] | 24% | 51% | 9.7 μm | 10 | Particle shape [7]: flake-like |
| fluticasone propionate [Sample 7] |  |  |  |  | Particle shape [7]: equant |
| fluticasone propionate [Sample 8] | 23% | 53% | 9.4 μm | 11 | Acetone Content [5]: Not Detected |
| fluticasone propionate [Sample 9] | 23% | 52% | 9.6 μm | 12 |  |
| fluticasone propionate [Sample 12] |  |  |  |  | Dynamic Bulk Density (W) [3]: 0.05 g cm^−3 |
| fluticasone propionate [Sample 13] |  |  |  |  | Dynamic Bulk Density (W) [3]: 0.06 g cm^−3 |
| fluticasone propionate [Sample 14] |  |  |  |  | % Drug retained on vial [4]: 3.8% |
| fluticasone propionate [Sample 15] |  |  |  |  | % Drug retained on vial [4]: 4.2%; Acetone Content [5]: Not Detected |
| fluticasone propionate [Sample 16] |  |  |  |  | % Drug retained on vial [4]: 7.6% |
| fluticasone propionate [Sample 17] |  |  |  |  | % Drug retained on vial [4]: 8.6% |
| fluticasone propionate [Sample 19] |  |  |  |  | Mean particle size [1, 8]: 4.8 microns |
